Key:
SARS-CoV-2 proteins = format: binding, SARS-CoV-2 (Wuhan variant)
SARS-CoV-2 ORF7a = SARS-CoV-2 ORF7a (Severe acute respiratory syndrome coronavirus 2, UniProt P0DTC7); assay: biochemical; format: binding, SARS-CoV-2 (Wuhan variant)
Sequence of SARS-CoV-2 ORF7a (P0DTC7 16-96): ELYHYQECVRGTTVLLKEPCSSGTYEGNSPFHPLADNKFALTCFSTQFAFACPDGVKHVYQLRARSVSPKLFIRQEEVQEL

Row | Molecule | interaction with the SARS-CoV-2 proteins (SARS-CoV-2 proteins) | Kd (SARS-CoV-2 ORF7a) [nM]
1 | synthetic control peptide: synthetic control peptide with an alpha-helical structure and a length of 29 amino acids, purchased from Biomatik (DKDGDLKTQIEKLWTEVNALKEIQALQTVCL) | did not show an interaction with the SARS-CoV-2 proteins | –
2 | CC[C@H](C)[C@H](NC(=O)[C@H](CCCCN)NC(=O)[C@H](CCC(=O)O)NC(=O)[C@H](CCCCN)NC(=O)[C@H](CO)NC(=O)[C@H](CCCCN)NC(=O)[C@H](CCCNC(=N)N)NC(=O)[C@H](Cc1ccccc1)NC(=O)[C@H](Cc1ccccc1)NC(=O)[C@H](CC(=O)O)NC(=O)CNC(=O)[C@H](CC(C)C)NC(=O)[C@@H](N)CC(C)C)C(=O)NCC(=O)N[C@@H](CCCCN)C(=O)N[C@@H](CCC(=O)O)C(=O)N[C@@H](Cc1ccccc1)C(=O)N[C@@H](CCCCN)C(=O)N[C@@H](CCCNC(=N)N)C(=O)N[C@H](C(=O)N[C@H](C(=O)N[C@@H](CCC(N)=O)C(=O)N[C@@H](CCCNC(=N)N)C(=O)N[C@H](C(=O)N[C@@H](CCCCN)C(=O)N[C@@H](CC(=O)O)C(=O)N[C@@H](Cc1ccccc1)C(=O)N[C@@H](CC(C)C)C(=O)N[C@@H](CCCNC(=N)N)C(=O)N[C@@H](CC(N)=O)C(=O)N[C@@H](CC(C)C)C(=O)N[C@H](C(=O)N1CCC[C@H]1C(=O)N[C@@H](CCCNC(=N)N)C(=O)N[C@H](C(=O)N[C@@H](CCC(=O)O)C(=O)N[C@@H](CO)C(=O)O)[C@@H](C)O)C(C)C)[C@@H](C)CC)C(C)C)[C@@H](C)CC [LL-37] | – | 140 ± 80
